The term IC50 denotes the midpoint of a concentration-inhibition curve. Read a high IC50 as lower potency.

Where a SMILES comes first, the peptide text is derived from it. Bridges are numbered along the chain shown (N, C = ends). [ ]: non-standard residue; d: D form.

The target of the test is T1, P-selectin (Homo sapiens, UniProt P16109).
T1 construct: P-selectin is isolated from human platelet lysates; from tissue; host or cells: human platelets (outdated platelet packs from a blood bank)
T1 sequence (P16109 42-830): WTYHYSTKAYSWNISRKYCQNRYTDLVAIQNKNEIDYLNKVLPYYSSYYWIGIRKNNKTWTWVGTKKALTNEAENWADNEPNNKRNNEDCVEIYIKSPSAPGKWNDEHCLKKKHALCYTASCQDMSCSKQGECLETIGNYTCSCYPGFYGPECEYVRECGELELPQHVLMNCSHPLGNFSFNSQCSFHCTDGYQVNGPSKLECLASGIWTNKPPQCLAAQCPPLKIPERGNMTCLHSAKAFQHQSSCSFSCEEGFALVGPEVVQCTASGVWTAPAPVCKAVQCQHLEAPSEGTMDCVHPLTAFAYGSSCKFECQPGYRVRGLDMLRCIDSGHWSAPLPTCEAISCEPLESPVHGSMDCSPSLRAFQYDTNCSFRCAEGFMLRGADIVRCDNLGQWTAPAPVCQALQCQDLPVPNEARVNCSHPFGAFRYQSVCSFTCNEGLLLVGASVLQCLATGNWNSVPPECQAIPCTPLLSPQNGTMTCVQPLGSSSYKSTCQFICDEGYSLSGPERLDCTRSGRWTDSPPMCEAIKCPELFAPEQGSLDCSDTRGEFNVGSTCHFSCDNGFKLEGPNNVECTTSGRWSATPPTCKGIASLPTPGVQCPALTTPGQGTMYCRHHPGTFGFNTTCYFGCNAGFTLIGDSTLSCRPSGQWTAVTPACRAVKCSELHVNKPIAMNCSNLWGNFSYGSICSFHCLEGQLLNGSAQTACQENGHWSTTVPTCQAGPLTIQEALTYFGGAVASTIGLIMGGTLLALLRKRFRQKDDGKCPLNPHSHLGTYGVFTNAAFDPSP
Briefly: Inhibition of human neutrophil adhesion to purified P-selectin immobilized on plastic wells. To be noted: inhibiting the binding of human neutrophils to P-selectin. Type of test: cell-based. The source says:
Peptides can be screened for their ability to inhibit adhesion to cells, for example, neutrophil adhesion to purified P-selectin immobilized on plastic wells, using the assay described by Geng, et al., Nature 343, 757-760 (1990). Human neutrophils are isolated from heparinized whole blood by density gradient centrifugation on Mono-Poly resolving media, Flow Laboratories. Neutrophil suspensions are greater than 98% pure and greater than 95% viable by trypan blue exclusion. For adhesion assays, neutrophils are suspended at a concentration of 2×10^6 cells/mL in Hanks' balanced salt solution containing 1.26 mM Ca^2+ and 0.81 mM Mg^2+ (HBSS, Gibco) with […] human serum albumin (HBSS/HSA). Adhesion assays are conducted in triplicate in 96-well microliter plates, Corning, incubated at 4° C. overnight with 50 microliters of various protein solutions. P-selectin is isolated from human platelet lysates by immunoaffinity chromatography on antibody S12-Sepharose™ and ion-exchange chromatography on a Mono-Q™ column (FLPC, Pharmacia Fine Chemicals), as follows. Outdated human platelet packs (100 units) obtained from a blood bank and stored at 4° C. are pooled, adjusted to 5 mM EDTA at pH 7.5, centrifuged at 4,000 rpm for 30 minutes in 1 liter bottles, then washed three times with 1 liter of 0.1M NaCl, 20 mM Tris pH 7.5 (TBS), 5 mM EDTA, 5 mM benzamidine. The pellets are then resuspended in a minimum amount of wash buffer and made 1 mM in DIFP, then frozen in 50 mL screwtop tubes at -80° C. The frozen platelets are thawed and resuspended in 50 mL TBS, 5 mM benzamidine, 5 mM EDTA pH 7.5, […]. The suspension is frozen and thawed two times in a dry ice-acetone bath using a 600 mL lyophilizing flask, then homogenized in a glass/teflon mortar and pestle and made 1 mM in DIFP. The NaCl concentration is adjusted to 0.5M with a stock solution of 4M NaCl. After stirring the suspension at 4° C., it is centrifuged in polycarbonate tubes at 33,000 rpm for 60 minutes at 4° C. The supernatant (0.5M NaCl wash) is removed and saved; this supernatant contains the soluble form of P-selectin. Care is taken not to remove the top part of the pellet with the supernatant. The pellets are then homogenized in extraction buffer (TBS, 5 mM benzamidine, 5 mM EDTA, pH 7.5, 100 μM leupeptin, 2% Triton X-100). After centrifugation at 19,500 rpm for 25 minutes at 4° C., the supernatant is removed. The extraction procedure is repeated with the pellet and the supernatant is combined with the first supernatant. The combined extracts, which contain the membrane form of P-selectin, are adjusted to 0.5M NaCl. The soluble fraction (0.5M NaCl wash) and the membrane extract (also adjusted to 0.5M NaCl) are absorbed with separate pools of the monoclonal antibody S12 (directed to P-selectin) previously couple […]) at 5 mg/mL for 2 hours at 4° C. After letting the resins settle, the supernatants are removed. The S12 Affigel containing bound GMP-140 is then loaded into a column and washed overnight at 4° C. with 400 mL of 0.5M NaCl, 20 mM Tris pH 7.5, 0.01% Lubrol PX. Bound P-selectin is eluted from the S12 Affigel with 100 mL of 80% ethylene glycol, 1 mM MES pH 6.0, 0.01% Lubrol PX. Peak fractions with absorbance at 280 nm are pooled. Eluates are dialyzed against TBS with 0.05% Lubrol, then applied to a Mono Q column (FPLC from Pharmacia). The concentrated protein is step eluted with 2M NaCl, 20 mM Tris pH 7.5 (plus 0.05% Lubrol PX for the membrane fraction). Peak fractions are dialyzed into TBS pH 7.5 (plus 0.05% Lubrol PX for the membrane fraction). P-selectin is plated at 5 micrograms/mL and the control proteins: human serum albumin (Alb), platelet glycoprotein IIb/IIIa (IIb), von Willebrand factor (vWF), fibrinogen (FIB), thrombomodulin (TM), gelatin (GEL) or human serum (HS), are added at 50 micrograms/mL. […]
As for `CC(C)[C@@H](NC(=O)[C@@H](Cc1c[nH]c2ccccc12)NC(=O)[C@H](NC(=O)[C@@H](CCC(N)=O)NC(=O)[C@H]1CSSC[C@@H](NC(=O)[C@@H](CCCCN)NC(=O)[C@H](N)CCCNC(=N)N)C(=O)NCC(=O)N[C@@H](Cc2ccccc2)C(=O)N1)[C@H](C)O)C(N)=O` [(46)] (H-[dR][dK][dC]GF[dC][dQ][dT][dW][dV]-NH2; disulfide 3-6), the IC50 stood at 48.4 µM.

With `CC(C)[C@@H](NC(=O)[C@@H](Cc1c[nH]c2ccccc12)NC(=O)[C@H](NC(=O)[C@@H]1CCCN1C(=O)[C@H]1CSSC[C@@H](NC(=O)[C@@H](CCCCN)NC(=O)[C@H](N)CCCNC(=N)N)C(=O)NCC(=O)N[C@@H](Cc2ccccc2)C(=O)N1)[C@H](C)O)C(N)=O` [(82)] (H-[dR][dK][dC]GF[dC]P[dT][dW][dV]-NH2; disulfide 3-6), the IC50 amounted to 547 µM.

Regarding `CC(C)[C@@H](NC(=O)[C@@H](Cc1ccc2ccccc2c1)NC(=O)[C@H](NC(=O)[C@@H](Cc1c[nH]c2ccccc12)NC(=O)[C@H]1CSC[C@@H](NC(=O)[C@@H](CCCCN)NC(=O)[C@H](N)CCCNC(=N)N)C(=O)NCC(=O)N[C@@H](Cc2ccccc2)C(=O)N1)[C@H](C)O)C(N)=O` [(78)], the IC50 came out at 50.7 µM.

Turning to `CC(C)[C@H](NC(=O)[C@H]1CSSC[C@@H](NC(=O)[C@@H](CCCCN)NC(=O)[C@H](N)CCCNC(=N)N)C(=O)NCC(=O)N[C@@H](Cc2ccccc2)C(=O)N1)C(=O)N[C@H](Cc1c[nH]c2ccccc12)C(=O)N[C@@H](C(=O)N[C@H](Cc1c[nH]c2ccccc12)C(N)=O)[C@H](C)O` [(75)] (H-[dR][dK][dC]GF[dC]V[dW][dT][dW]-NH2; disulfide 3-6), the IC50 worked out at 6 µM.

`CC(C)[C@@H](NC(=O)[C@@H](Cc1c[nH]c2ccccc12)NC(=O)[C@H](NC(=O)[C@@H](Cc1c[nH]c2ccccc12)NC(=O)[C@H]1CSSC[C@@H](NC(=O)[C@H](N)CCCCN)C(=O)NCC(=O)NCC(=O)N1)[C@H](C)O)C(N)=O` [(26)] (H-[dK][dC]GG[dC][dW][dT][dW][dV]-NH2; disulfide 2-5): the IC50 turned out to be 26 µM.

`CC(C)[C@@H](NC(=O)[C@@H](Cc1c[nH]c2ccccc12)NC(=O)[C@H](NC(=O)[C@@H](Cc1ccc(O)cc1)NC(=O)[C@H]1CSSC[C@@H](NC(=O)[C@@H](CCCCN)NC(=O)[C@H](N)CCCNC(=N)N)C(=O)NCC(=O)N[C@@H](Cc2ccccc2)C(=O)N1)[C@H](C)O)C(N)=O` [(64)] (H-[dR][dK][dC]GF[dC][dY][dT][dW][dV]-NH2; disulfide 3-6) displayed an IC50 of 46.2 µM.

Take `CC[C@@H](C)[C@@H](NC(=O)CNC(=O)[C@H]1CSSC[C@@H](N)C(=O)N[C@H](CCCCN)C(=O)N[C@H]([C@H](C)CC)C(=O)N1)C(=O)N[C@H](Cc1c[nH]c2ccccc12)C(=O)N[C@@H](C(=O)N[C@H](Cc1c[nH]c2ccccc12)C(=O)N[C@@H](C(N)=O)C(C)C)[C@H](C)O` [(109)] (H-[dC][dK][dI][dC]G[dI][dW][dT][dW][dV]-NH2; disulfide 1-4): the IC50 was found to be 33.9 µM.

Molecule `CC(C)[C@@H](NC(=O)[C@@H](Cc1c[nH]c2ccccc12)NC(=O)[C@H]1CCC(=O)NCCCC[C@@H](NC(=O)[C@H](N)CCCNC(=N)N)C(=O)N[C@@H]2CSSC[C@@H](NC(=O)[C@H](Cc3ccccc3)NC(=O)CNC2=O)C(=O)N[C@H](Cc2c[nH]c3ccccc23)C(=O)N1)C(N)=O` [(106)] (H-[dR][dK][dC]GF[dC][dW][dE][dW][dV]-NH2; lactam 2-8; disulfide 3-6; N-terminus assumed) came in with an IC50 of 8 µM.

`CC(C)[C@@H](NC(=O)[C@@H](Cc1c[nH]c2ccccc12)NC(=O)[C@H](NC(=O)[C@@H](Cc1c[nH]c2ccccc12)NC(=O)[C@H]1CSSC[C@@H](NC(=O)[C@@H](CCCCN)NC(=O)[C@H](N)CCCNC(=N)N)C(=O)N2CCC[C@H]2C(=O)NCC(=O)N1)[C@H](C)O)C(N)=O` [(83)] (H-[dR][dK][dC]PG[dC][dW][dT][dW][dV]-NH2; disulfide 3-6) displayed an IC50 of 983 µM.
